Assay results as given in patent publication US9249131B2, “Modulators of ATP-binding cassette transporters” (Vertex Pharmaceuticals Incorporated, priority 2003, dated 2016).

Molecular target: T1, ΔF508-CFTR (Homo sapiens, UniProt P13569, DEL508-508)
T1 construct: expressed in transfected cells; host or cells: NIH3T3 mouse fibroblasts stably expressing ΔF508-CFTR for the optical, whole-cell and single-channel assays; Fisher rat epithelial (FRT) cells for Ussing chamber follow-up
Test: Assays for ΔF508-CFTR correction and potentiator properties (membrane potential optical and electrophysiological methods)
Type: cell-based
Details: CFTR modulation; for % Activity: % Efficacy; for EC50: tested using the above methods
In short: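 NIH3T3 mouse fibroblasts stably expressing ΔF508-CFTR were used, with membrane potential read by DiSBAC2(3)/CC2-DMPE FRET on VIPR. Correctors: 16 h compound exposure at 37 °C, then activation with forskolin plus genistein in Cl⁻-free medium. Potentiators: cells held 24 h at 27 °C, compound added in Cl⁻-free medium, 2-10 μM forskolin 22 s later (final Cl⁻ 28 mM).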

T1 sequence (P13569 with tags, fused parts or gaps DEL508-508): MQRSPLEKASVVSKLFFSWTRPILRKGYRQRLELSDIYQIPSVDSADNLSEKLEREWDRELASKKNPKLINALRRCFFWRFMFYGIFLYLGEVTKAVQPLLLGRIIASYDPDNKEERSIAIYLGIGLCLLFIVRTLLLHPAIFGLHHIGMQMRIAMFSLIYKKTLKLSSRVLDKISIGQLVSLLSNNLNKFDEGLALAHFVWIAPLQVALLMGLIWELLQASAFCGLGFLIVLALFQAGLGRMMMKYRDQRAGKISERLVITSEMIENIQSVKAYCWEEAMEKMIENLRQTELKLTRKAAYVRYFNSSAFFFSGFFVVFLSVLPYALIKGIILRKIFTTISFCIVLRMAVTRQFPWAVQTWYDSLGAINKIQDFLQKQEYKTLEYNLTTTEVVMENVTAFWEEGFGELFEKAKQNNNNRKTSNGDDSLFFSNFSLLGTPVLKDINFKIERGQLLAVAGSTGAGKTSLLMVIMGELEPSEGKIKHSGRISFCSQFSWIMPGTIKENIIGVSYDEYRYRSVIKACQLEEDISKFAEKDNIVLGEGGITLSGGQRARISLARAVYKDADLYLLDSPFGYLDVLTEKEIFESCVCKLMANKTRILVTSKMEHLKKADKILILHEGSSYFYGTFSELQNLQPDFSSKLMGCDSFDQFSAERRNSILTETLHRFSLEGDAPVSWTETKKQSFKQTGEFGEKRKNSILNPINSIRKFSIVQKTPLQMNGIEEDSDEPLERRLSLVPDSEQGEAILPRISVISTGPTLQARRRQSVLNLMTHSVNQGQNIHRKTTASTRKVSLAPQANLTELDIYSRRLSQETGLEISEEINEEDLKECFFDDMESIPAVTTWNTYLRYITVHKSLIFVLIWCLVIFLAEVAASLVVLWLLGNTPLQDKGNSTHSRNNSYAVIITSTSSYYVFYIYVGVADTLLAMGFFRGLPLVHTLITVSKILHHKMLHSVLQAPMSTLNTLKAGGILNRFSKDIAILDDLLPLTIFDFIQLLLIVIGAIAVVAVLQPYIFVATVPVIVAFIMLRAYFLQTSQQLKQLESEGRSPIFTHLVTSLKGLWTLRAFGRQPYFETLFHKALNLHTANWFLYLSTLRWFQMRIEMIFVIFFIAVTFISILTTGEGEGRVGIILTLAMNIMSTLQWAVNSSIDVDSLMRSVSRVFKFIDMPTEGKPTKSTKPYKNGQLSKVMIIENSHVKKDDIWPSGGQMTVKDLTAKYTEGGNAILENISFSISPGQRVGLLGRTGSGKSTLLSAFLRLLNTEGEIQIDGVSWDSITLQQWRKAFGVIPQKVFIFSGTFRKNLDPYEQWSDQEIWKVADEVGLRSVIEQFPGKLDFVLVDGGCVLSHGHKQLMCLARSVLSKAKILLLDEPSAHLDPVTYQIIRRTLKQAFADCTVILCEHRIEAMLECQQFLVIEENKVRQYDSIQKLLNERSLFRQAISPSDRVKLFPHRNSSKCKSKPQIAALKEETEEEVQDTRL

| SMILES | % Activity | EC50 |
| --- | --- | --- |
| O=C(Nc1ncc(Cc2ccc(Cl)cc2)o1)C1Cc2ccccc21 (stereo not drawn) [compound 145] | ++ (“++” means between 25% to 100%) | 10 to 25 µM |
| COc1ccccc1Cc1cnc(NC(=O)C2Cc3ccccc32)o1 (stereo not drawn) [compound 181] | ++ (“++” means between 25% to 100%) | 25 to 60 µM |
| CC[C@H](C(=O)Nc1ncc(Cc2ccccc2Cl)s1)c1ccccc1 [compound 202] | ++ (“++” means between 25% to 100%) | < 10 µM |
| CCC(C(=O)Nc1ncc(Cc2ccccc2Cl)s1)N1CCSCC1 (stereo not drawn) [compound 224] | ++ (“++” means between 25% to 100%) | < 10 µM |
| CCNC(C(=O)Nc1ncc(Cc2ccccc2Cl)s1)c1ccccc1 (stereo not drawn) [compound 213] | ++ (“++” means between 25% to 100%) | 10 to 25 µM |
| COc1ccc(-c2ccc(C(=O)Nc3nc4ccc(OC)cc4s3)cc2)cc1 [compound 15] | ++ (“++” means between 25% to 100%) | < 10 µM |
| CC(CC(=O)O)CC(=O)Nc1nc(-c2ccccc2)c(-c2ccccc2)s1 (stereo not drawn) [compound 60] | ++ (“++” means between 25% to 100%) | 10 to 25 µM |
| COc1cccc(C(=O)Nc2nc(-c3ccccc3)cs2)c1 [compound 49] | ++ (“++” means between 25% to 100%) | 10 to 25 µM |
| CC(C(=O)Nc1ncc(Cc2ccccc2Cl)o1)c1ccccc1 (stereo not drawn) [compound 189] | ++ (“++” means between 25% to 100%) | 25 to 60 µM |
| O=C(Nc1ncc(Cc2ccccc2Cl)s1)C1c2ccccc2Oc2ccccc21 [compound 90] | +++ (“+++” means >100%) | < 10 µM |
| N#Cc1ccccc1Cc1cnc(NC(=O)C(c2ccccc2)C2CCCCC2)s1 (stereo not drawn) [compound 256] | ++ (“++” means between 25% to 100%) | < 10 µM |
| O=C(Nc1ncc(Cc2ccccc2Cl)s1)c1cccc2ccccc12 [compound 26] | ++ (“++” means between 25% to 100%) | 10 to 25 µM |
| O=C(Nc1ncc(Cc2ccccc2Cl)s1)C(c1ccccc1)C1CCCCC1 (stereo not drawn) [compound 91] | +++ (“+++” means >100%) | < 10 µM |
| COC(=O)c1ccccc1C(=O)Nc1nc(-c2ccccc2)cs1 [compound 171] | ++ (“++” means between 25% to 100%) | < 10 µM |
| Cc1cccc(C(=O)Nc2nc(-c3ccccc3)c(-c3ccccc3)s2)c1 [compound 70] | +++ (“+++” means >100%) | < 10 µM |
| CCC(C(=O)Nc1ncc(Cc2ccccc2Cl)s1)N(CC)CC (stereo not drawn) [compound 221] | ++ (“++” means between 25% to 100%) | 10 to 25 µM |
| O=C(Nc1ncc(Cc2cccc(Cl)c2)s1)C1Cc2ccccc21 (stereo not drawn) [compound 126] | ++ (“++” means between 25% to 100%) | 25 to 60 µM |
| Cc1ccccc1C(=O)Nc1nc(-c2ccccc2)cs1 [compound 75] | ++ (“++” means between 25% to 100%) | 10 to 25 µM |
| CCOC(C(=O)Nc1ncc(Cc2ccccc2Cl)s1)c1ccccc1 (stereo not drawn) [compound 234] | ++ (“++” means between 25% to 100%) | 10 to 25 µM |
| CCC(NC)C(=O)Nc1ncc(Cc2ccccc2Cl)s1 (stereo not drawn) [compound 218] | ++ (“++” means between 25% to 100%) | 25 to 60 µM |
| CCC(=O)Nc1nc(-c2ccccc2)c(-c2ccccc2)s1 [compound 50] | +++ (“+++” means >100%) | < 10 µM |

Other lines, results leading:

| % Activity | EC50 | SMILES |
| --- | --- | --- |
| +++ (“+++” means >100%) | < 10 µM | CC(C)(C(=O)Nc1ncc(Cc2ccccc2Cl)s1)c1ccccc1 [compound 238] |
| +++ (“+++” means >100%) | < 10 µM | CCOc1ccc2nc(NC(=O)C(CC)c3ccccc3)sc2c1 (stereo not drawn) [compound 265] |
| ++ (“++” means between 25% to 100%) | < 10 µM | CCC(C)C(C(=O)Nc1ncc(Cc2cccc(Cl)c2)s1)c1ccccc1 (stereo not drawn) [compound 129] |
| +++ (“+++” means >100%) | < 10 µM | CCC(C(=O)Nc1ncc(Cc2cccc(Cl)c2)s1)c1ccccc1 (stereo not drawn) [compound 128] |
| ++ (“++” means between 25% to 100%) | < 10 µM | CC[C@H](C(=O)Nc1ncc(Cc2cccc(Cl)c2)s1)c1ccccc1 [compound 204] |
| ++ (“++” means between 25% to 100%) | 10 to 25 µM | COc1cccc(C(=O)Nc2nc(-c3cccc(OC)c3)cs2)c1 [compound 82] |
| ++ (“++” means between 25% to 100%) | 25 to 60 µM | CCNC(CC)C(=O)Nc1ncc(Cc2ccccc2Cl)s1 (stereo not drawn) [compound 220] |
| ++ (“++” means between 25% to 100%) | < 10 µM | CCC(C)C(C(=O)Nc1ncc(Cc2ccccc2Cl)o1)c1ccccc1 (stereo not drawn) [compound 191] |
| ++ (“++” means between 25% to 100%) | < 10 µM | COc1ccc(Cc2cnc(NC(=O)C(c3ccccc3)c3ccccc3)s2)cc1 [compound 27] |
